One series concerns the target T1, recombinant human TOP2A (Homo sapiens, UniProt P11388).
T1 construct: Using recombinant full-length human TOP2A and TOP2B enzymes; YFP (N, cleaved yes); made in house; host or cells: HEK293F
The series is described as follows: In vitro ATPase activity of TOP2A (coupled assay). The note with it: n=3. It is filed as biochemical. The procedure:
(§1) Topoisomerase proteins were diluted to 500 nM in storage buffer containing 20 mM HEPES pH 7.5, 500 mM NaCl, 0.5 mM TCEP, 25% glycerol, and 0.2 mg/mL BSA prior to use. A coupled assay was used to measure TOP2-catalyzed ATP hydrolysis in vitro[37] in Costar 96-well plates (Corning Incorporated). […] Reaction plates were pre-warmed to 30 °C for 5 min and ATP was added last to initiate the reaction. The reaction plate was placed in a CLARIOstarPlus plate reader (BMG Labtech) to measure NADH fluorescence at 30 °C every 30 s over 120 cycles using a 340-60 excitation filter and a 480-100 emission filter. Background fluorescence signals calculated from wells containing no ATP were subtracted from each measurement. The slope of NADH fluorescence decay in each well was calculated using the MARS software (BMG Labtech) and reaction wells that lacked topoisomerase inhibitor to account for photobleaching of NADH fluorescence served as background subtraction. Each presented data point was obtained from distinct sample. Values were normalized to untreated controls and plotted as a function of inhibitor concentration to determine IC50 values using Prism 9 (GraphPad).

A further series addresses T2, recombinant human TOP2B (Homo sapiens, UniProt Q02880).
T2 construct: Using recombinant full-length human TOP2A and TOP2B enzymes; YFP (N, cleaved yes); made in house; host or cells: HEK293F
The series can be described thus: In vitro ATPase activity of TOP2B (coupled assay). It is filed as biochemical. The note with it: for SRbeta (SRTOP2B), TOP2 ATPase activity: TOP2A IC50 divided by TOP2B IC50; for pIC50: n=3. The procedure:
as §1

Series [1] deals with neonatal rat ventricular cardiomyocytes (NVCM). The series is described as follows: Protection against DAU-induced cytotoxicity (LDH release) in NVCM. It counts as cell-based. More on the design: key to Suppl.Fig.3 DAU-induced cytotoxicity (LDH release) in NVCM, mean of independent replicates / LDH release (DAU-induced cytotoxicity), mean of independent replicates: % of total LDH activity. The note with it: for minimal effective concentration: Rattus norvegicus, Cardiomyocyte, NVCM, protection against DAU 1.2 µM, n=4, read-out: LEC = lowest effective concentration. On the procedure: (§2) The protective effects of the BNS-22 and newly prepared compounds were evaluated using primary cultures of neonatal rat cardiomyocytes isolated in house as previously described. Hearts isolated from 1- to 3-day-old Wistar rats were minced in buffer (1.2 mM MgSO4 · 7H2O, 116 mM NaCl, 5.3 mM KCl, 1.13 mM NaH2PO4 · H2O, 20 mM 4-(2-hydroxyethyl)-1-piperazine ethanesulfonic acid (HEPES), glucose 1 mg/mL) on ice, then serially digested (20 min, six repetitions) at 37 °C with collagenase type II (60 U/mL, Gibco). After 2 h pre-plating in a 150 mm Petri dish per approximately 20 hearts to minimize non-myocyte contamination, cells were plated in 24-well gelatin-coated plates at a density of 400,000 cells per well. Cells were cultured at 37 °C and 5% CO2 in Dulbecco’s modified Eagle medium (DMEM)/ F12 culture medium supplemented with 10% horse serum, 5% fetal bovine serum (FBS), 20 mM sodium pyruvate, 50 U/mL penicillin, and 50 μg/mL streptomycin. Freshly isolated cells were left for 40 h to attach and form a culture of spontaneously beating cardiomyocytes, then the medium was changed to DMEM/F12 medium supplemented with 5% fetal bovine serum, 20 mM sodium pyruvate, 50 U/mL penicillin, and 50 μg/mL streptomycin. For the experiments, the medium was changed to serum- and pyruvate-free DMEM/F12 with 50 U/mL penicillin and 50 μg/mL streptomycin. Cardiomyocytes were pretreated with BNS-22 or new compounds for 3 h and then coincubated with DAU (1.2 µM) for another 3 h. After the DAU treatment period, the culture medium was exchanged for the drug-free DMEM/F12 with 50 U/mL penicillin and 50 μg/mL streptomycin for the 48 h follow-up. Experiments to determine the inherent toxicity of each compound studied follow the same schedule, only no DAU was added. Subsequently, the culture medium sample was taken from each well for evaluation of lactate dehydrogenase (LDH) activity. The total LDH activity of each sample for normalization was measured after 1 h of incubation at 37 °C in lysis buffer (0.1 M potassium phosphate, 1% Triton X-100, 1 mM dithiothreitol (DTT), 2 mM EDTA, pH 7.8, 15 min in RT). All samples were immediately analyzed in Tris HCl buffer (pH 8.9) containing 35 mM lactic acid and 5 mM NAD^+. The rate of NAD^+ reduction was monitored spectrophotometrically at 340 nm for 2 min. The slope of the linear region was calculated, and the results were expressed as a percentage of the total LDH. Each presented data point was obtained from distinct sample.
In general terms: LDH in the medium is a marker of cell lysis.

The test system is the same in series [2]. The series can be described thus: Inherent toxicity (LDH release) in NVCM. It counts as cell-based. Set-up: key to LDH release (inherent toxicity), mean of independent replicates: % of total LDH activity. The note with it: NVCM; for LDH release (inherent toxicity), mean of independent replicates: Suppl.Fig.4. The procedure:
as §2

A further series has as its target T3, YFP-TOP2A (Homo sapiens, UniProt P11388).
T3 construct: Using recombinant full-length human TOP2A and TOP2B enzymes; expressed in transfected cells; host or cells: HEK293F
The series is described as follows: FRAP analysis, YFP-TOP2A in HEK293F cells. It is filed as cell-based. Particulars: 15 min pre-incubation. The procedure:
(§3) HEK293F cells were transfected with DNA plasmids encoding yellow-fluorescent protein (YFP)-TOP2A or YFP-TOP2B (the same DNA constructs for mammalian protein expression and purification) using Lipofectamine 2000 (Thermo Fisher Scientific). Cells were cultured for 24 h post transfection and YFP signals were confirmed prior to FRAP experiments. Transfected cells were plated on glass-bottomed culture dishes (Matsunami) and rested overnight. The next day, each dish was pre-incubated with the indicated inhibitor treatment or DMSO control for 15 min prior to FRAP experiment. Each set of experiments was repeated on at least two different days using newly transfected cells each time. Live-cell imaging was done using a LSM 980 microscope (Carl Zeiss Microscopy, LLC). YFP signal was excited at 508 nm at 2% laser power and detected through a 516–604 nm range. A small area within the nucleus (purple box) is manually selected for fluorescence bleaching at 100% laser power for 50 iterations. Inhibition of TOP2 by obex inhibitors was detected by impairment in fluorescence recovery at 15 s post bleaching, as a lack of inhibition allows for TOP2 diffusion throughout the nucleus.

Another series has as its target T4, YFP-TOP2B (Homo sapiens, UniProt Q02880).
T4 construct: Using recombinant full-length human TOP2A and TOP2B enzymes; expressed in transfected cells; host or cells: HEK293F
The series is described as follows: FRAP analysis, YFP-TOP2B in HEK293F cells. It is filed as cell-based. Particulars: 15 min pre-incubation. The procedure:
as §3

In series [3] the target is T5, TOP2A-DNA covalent complex (Homo sapiens, UniProt P11388).
T5 construct: endogenous in cells; host or cells: HEK293F
T5 sequence (P11388 whole entry, one chain of several): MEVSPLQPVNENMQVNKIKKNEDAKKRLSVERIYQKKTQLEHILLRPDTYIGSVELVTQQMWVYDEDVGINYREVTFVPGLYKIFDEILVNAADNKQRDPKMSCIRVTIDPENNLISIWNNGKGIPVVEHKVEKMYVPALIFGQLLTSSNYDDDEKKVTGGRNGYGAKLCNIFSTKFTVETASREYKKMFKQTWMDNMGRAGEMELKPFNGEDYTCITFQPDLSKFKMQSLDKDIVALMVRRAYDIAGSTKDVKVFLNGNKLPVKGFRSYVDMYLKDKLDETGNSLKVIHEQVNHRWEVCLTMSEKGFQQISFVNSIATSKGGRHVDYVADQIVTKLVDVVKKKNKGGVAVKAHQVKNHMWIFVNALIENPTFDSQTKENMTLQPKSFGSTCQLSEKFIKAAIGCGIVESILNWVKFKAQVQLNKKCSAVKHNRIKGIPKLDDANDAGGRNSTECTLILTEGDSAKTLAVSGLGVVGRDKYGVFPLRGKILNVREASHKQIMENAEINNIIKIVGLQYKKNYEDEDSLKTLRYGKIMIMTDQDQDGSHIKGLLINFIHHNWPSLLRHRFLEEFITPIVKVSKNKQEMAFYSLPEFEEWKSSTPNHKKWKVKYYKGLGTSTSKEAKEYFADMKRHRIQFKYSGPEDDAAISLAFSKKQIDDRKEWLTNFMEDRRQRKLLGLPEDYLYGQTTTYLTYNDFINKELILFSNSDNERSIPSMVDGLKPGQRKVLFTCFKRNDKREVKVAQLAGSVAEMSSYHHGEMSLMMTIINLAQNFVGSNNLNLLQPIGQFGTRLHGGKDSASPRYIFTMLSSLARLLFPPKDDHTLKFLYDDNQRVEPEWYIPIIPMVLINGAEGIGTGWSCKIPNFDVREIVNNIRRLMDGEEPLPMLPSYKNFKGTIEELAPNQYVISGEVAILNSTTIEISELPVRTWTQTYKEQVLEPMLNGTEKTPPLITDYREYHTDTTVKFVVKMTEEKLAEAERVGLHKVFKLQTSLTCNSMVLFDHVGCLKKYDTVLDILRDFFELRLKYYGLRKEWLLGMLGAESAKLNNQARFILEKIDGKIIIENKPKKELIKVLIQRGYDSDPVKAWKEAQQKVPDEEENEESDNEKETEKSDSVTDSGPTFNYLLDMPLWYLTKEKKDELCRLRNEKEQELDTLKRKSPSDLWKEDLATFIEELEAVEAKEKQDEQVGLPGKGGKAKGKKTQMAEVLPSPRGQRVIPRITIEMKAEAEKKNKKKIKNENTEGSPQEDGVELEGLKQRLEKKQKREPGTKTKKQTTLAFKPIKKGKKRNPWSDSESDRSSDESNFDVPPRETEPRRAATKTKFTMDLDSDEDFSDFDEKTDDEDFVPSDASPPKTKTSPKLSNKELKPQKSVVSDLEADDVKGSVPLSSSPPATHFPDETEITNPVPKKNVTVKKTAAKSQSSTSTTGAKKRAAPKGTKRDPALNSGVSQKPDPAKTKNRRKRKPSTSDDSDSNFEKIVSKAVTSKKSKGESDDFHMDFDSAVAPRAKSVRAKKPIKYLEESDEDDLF
The series is described as follows: RADAR assay, etoposide-induced TOP2A-DNA covalent complex in HEK293F cells. It is filed as cell-based. Particulars: etoposide 5 μM alone; independent replicates. On the procedure: (§4) HEK293F cells were plated at 3 × 10^5 cells per well and grown overnight. […] Upon removal of media, cells in each well were immediately lysed with 750 µL DNAzol (Molecular Research Center, Inc.) and the DNA was precipitated by addition of 375 µL of 100% ethanol. This step was then repeated to eliminate protein aggregates. Precipitate from each sample was pelleted via centrifugation at 4 °C and max speed for 5 min. The pellets were washed twice with buffer containing 20 mM Tris pH 7.5, 1 mM EDTA pH 8.0, 50 mM NaCl, 50% EtOH, and at the end of each wash, centrifugation at 4000 × g for 2 min was repeated to isolate the DNA pellets. The pellets were washed in 75% EtOH and then collected by centrifugation at 4 °C and max speed for 5 min. The supernatant was removed via pipetting, and the remaining pellets were air dried for 5 min before 50 µL 8 mM NaOH and 0.1% Tween-20 was added to each pellet. Once no visible precipitate remained, each mixture was supplemented with 5 µL of Benzonase buffer containing 500 mM Tris pH 8.0, 10 mM MgCl2, 1/1000 Roche complete protease inhibitor cocktail (Millipore Sigma) and 40 units Benzonase (Millipore Sigma) followed by 30 to 60 min incubation at 37 °C until the pellets were fully dissolved. The DNA content from each sample was quantified on a nanodrop, and 10 µg of DNA was diluted to a final volume of 200 µL in 8 mM NaOH and 0.1% Tween. The samples were applied over the Whatman Minifold I dot blot apparatus (Cytiva) and collected on a PVDF membrane (Thermo Fisher Scientific). The membrane was washed three times with 8 mM NaOH and 0.1% Tween-20 solution prior to removal and blocking with the same wash solution containing 1 mg/mL BSA. Western blotting was carried out on an iBind (Thermo Fisher Scientific) and TOP2 proteins were detected using isoform-specific antibody against full length TOP2A (1:250 dilution; HT2A21, Inspiralis) and TOP2B (1:500 dilution; 611493, BD Biosciences) and visualized with anti-rabbit (1:1000 dilution; 926-68071, LI-COR Bio) and anti-mouse (1:1000 dilution; 926-32210, LI-COR Bio) secondary antibodies in iBind running buffer. The blots were imaged on a LI-COR Odyssey Fc and analysed using ImageStudio. Each presented data point was obtained from distinct sample.

Series [4] deals with T6, TOP2B-DNA covalent complex (Homo sapiens, UniProt Q02880).
T6 construct: endogenous in cells; host or cells: HEK293F
T6 sequence (Q02880 2-1626 limits assumed, one chain of several): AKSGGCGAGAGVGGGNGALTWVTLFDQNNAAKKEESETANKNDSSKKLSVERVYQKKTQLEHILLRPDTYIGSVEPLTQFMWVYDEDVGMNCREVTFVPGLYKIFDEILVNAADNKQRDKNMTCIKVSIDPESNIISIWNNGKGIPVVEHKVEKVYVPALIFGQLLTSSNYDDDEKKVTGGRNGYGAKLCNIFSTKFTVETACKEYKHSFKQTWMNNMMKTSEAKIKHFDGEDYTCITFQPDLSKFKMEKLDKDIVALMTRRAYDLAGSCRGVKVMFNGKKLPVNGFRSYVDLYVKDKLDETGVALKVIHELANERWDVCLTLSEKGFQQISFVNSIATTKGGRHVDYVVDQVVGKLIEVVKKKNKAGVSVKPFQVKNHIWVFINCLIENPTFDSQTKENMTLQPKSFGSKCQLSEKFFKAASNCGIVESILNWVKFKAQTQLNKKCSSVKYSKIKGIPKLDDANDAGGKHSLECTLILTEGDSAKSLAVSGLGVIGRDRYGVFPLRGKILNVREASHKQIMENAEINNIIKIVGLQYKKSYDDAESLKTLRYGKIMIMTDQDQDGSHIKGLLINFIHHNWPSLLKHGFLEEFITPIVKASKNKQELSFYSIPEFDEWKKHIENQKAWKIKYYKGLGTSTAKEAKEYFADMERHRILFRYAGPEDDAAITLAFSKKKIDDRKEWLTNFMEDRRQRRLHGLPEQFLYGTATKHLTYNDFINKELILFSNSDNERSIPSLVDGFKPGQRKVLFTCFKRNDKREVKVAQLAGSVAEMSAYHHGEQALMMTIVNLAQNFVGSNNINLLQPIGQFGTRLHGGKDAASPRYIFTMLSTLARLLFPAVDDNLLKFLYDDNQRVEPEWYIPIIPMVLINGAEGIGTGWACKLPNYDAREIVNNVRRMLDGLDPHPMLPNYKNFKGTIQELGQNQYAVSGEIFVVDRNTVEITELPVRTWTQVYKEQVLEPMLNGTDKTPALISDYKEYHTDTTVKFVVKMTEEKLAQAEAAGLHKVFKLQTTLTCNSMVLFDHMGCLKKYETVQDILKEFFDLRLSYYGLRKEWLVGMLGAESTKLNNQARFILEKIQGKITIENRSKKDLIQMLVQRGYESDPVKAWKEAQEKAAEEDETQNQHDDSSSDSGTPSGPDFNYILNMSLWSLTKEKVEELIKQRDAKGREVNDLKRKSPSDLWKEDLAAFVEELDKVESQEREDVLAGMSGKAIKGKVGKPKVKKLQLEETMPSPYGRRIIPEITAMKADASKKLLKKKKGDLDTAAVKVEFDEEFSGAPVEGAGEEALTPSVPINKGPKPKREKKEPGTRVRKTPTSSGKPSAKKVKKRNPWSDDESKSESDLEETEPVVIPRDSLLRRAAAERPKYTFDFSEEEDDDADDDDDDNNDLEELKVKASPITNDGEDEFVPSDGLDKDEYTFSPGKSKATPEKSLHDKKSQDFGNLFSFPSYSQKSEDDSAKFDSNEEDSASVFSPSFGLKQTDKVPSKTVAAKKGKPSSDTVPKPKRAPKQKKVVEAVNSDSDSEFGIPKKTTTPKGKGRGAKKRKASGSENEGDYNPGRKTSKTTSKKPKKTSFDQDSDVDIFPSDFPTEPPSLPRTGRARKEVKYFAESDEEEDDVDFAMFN
The series is described as follows: RADAR assay, etoposide-induced TOP2B-DNA covalent complex in HEK293F cells. It is filed as cell-based. Particulars: etoposide 5 μM alone; independent replicates. On the procedure: as §4

Structures are written as SMILES. pIC50: −log10 of the molar value. “And” between values parts separate entries of the source, which are not always exact repeats. Identical values can stand only once.

T2 sequence (Q02880 1-1621 isoform Q02880-2): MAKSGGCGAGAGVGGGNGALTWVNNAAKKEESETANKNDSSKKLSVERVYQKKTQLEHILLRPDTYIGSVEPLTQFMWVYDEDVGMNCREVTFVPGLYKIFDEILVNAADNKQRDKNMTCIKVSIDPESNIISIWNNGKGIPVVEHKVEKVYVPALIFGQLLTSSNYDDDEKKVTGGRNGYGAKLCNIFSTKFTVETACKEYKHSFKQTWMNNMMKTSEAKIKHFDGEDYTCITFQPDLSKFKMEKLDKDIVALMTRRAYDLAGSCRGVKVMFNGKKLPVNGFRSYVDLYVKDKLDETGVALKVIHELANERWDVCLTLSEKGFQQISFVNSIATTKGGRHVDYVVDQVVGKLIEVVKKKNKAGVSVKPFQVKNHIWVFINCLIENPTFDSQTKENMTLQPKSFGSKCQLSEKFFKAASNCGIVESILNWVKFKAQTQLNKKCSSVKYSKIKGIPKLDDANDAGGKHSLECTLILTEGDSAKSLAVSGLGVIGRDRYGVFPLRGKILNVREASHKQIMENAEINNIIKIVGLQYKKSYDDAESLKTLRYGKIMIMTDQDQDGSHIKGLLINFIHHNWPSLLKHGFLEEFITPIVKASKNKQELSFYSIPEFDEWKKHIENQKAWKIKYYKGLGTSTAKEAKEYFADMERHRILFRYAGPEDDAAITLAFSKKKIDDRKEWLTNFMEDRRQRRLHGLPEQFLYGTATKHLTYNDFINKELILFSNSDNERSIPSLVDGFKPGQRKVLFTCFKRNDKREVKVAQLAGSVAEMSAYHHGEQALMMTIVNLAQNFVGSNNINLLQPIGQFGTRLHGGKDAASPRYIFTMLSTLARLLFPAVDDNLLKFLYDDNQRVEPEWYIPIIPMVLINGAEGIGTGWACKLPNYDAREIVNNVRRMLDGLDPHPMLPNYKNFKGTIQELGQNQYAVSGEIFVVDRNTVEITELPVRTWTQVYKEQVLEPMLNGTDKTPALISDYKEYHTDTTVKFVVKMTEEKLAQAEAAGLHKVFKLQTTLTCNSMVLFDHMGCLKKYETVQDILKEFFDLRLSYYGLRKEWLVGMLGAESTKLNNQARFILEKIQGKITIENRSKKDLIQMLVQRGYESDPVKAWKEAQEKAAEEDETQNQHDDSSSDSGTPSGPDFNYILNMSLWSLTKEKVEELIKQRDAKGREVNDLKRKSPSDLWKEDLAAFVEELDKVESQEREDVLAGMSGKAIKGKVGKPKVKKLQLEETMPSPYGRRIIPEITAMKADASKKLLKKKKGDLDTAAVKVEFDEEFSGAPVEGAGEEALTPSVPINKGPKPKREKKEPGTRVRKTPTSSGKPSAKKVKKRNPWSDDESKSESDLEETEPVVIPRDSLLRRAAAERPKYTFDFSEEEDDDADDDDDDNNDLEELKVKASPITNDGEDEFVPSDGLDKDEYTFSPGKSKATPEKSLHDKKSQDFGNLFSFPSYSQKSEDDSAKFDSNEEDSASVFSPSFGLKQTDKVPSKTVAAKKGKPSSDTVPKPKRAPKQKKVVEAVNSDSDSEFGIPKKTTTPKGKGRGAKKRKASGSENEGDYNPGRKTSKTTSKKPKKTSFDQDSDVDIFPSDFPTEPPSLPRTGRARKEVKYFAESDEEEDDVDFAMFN
T1 sequence (P11388 whole entry): as the sequence (P11388 whole entry, one chain of several) above
T4 sequence (Q02880 1-1621 isoform Q02880-2): as the sequence (Q02880 1-1621 isoform Q02880-2) above
T3 sequence (P11388 whole entry): as the sequence (P11388 whole entry, one chain of several) above

A word on the pIC50: it is −log10 of the IC50, conventionally taken in molar units. As for `CCCc1cc(=O)oc2c(C(=O)N3CCCc4ccccc43)c(O)ccc12` [2c], the results for the negative-log IC50 (pIC50) at recombinant human TOP2A and at recombinant human TOP2B were 6.16 and 6.18, respectively. Moreover, the “relative inhibition of TOP2A vs TOP2B” value on recombinant human TOP2B (ATPase) was “inhibited TOP2A and TOP2B with equal efficacy”. In addition, at recombinant human TOP2B, the “SRbeta (SRTOP2B), TOP2 ATPase activity” value is 1.0. The minimal effective concentration in series [1] was found to be 10 µM. In addition, the “Suppl.Fig.3 DAU-induced cytotoxicity (LDH release) in NVCM, mean of independent replicates” value in series [1] (compound 1 µM + DAU 1.2 µM) stood at 33.3224; in series [1] (compound 10 µM + DAU 1.2 µM), 29.0836; in series [1] (compound 30 µM + DAU 1.2 µM), 25.5275; in series [1] (compound 100 µM + DAU 1.2 µM), 35.3978. Also, the “LDH release (inherent toxicity), mean of independent replicates” value in series [2] (compound alone 1 µM) is 16.6801; in series [2] (compound alone 10 µM) it was 16.3877; in series [2] (compound alone 30 µM), 17.2005; in series [2] (compound alone 100 µM), 29.603. The “fluorescence recovery of YFP-TOP2A (FRAP)” value on YFP-TOP2A is on record as “inhibits fluorescence recovery”. In addition, at YFP-TOP2B, the “fluorescence recovery of YFP-TOP2B (FRAP)” value was “inhibits fluorescence recovery”.
Regarding `CCc1cc(=O)oc2c(C(=O)N3CCCc4ccccc43)c(OCCO)ccc12` [5b], the values for the negative-log IC50 (pIC50) on recombinant human TOP2A and at recombinant human TOP2B were 5.85 and 5.84, respectively. Moreover, the “SRbeta (SRTOP2B), TOP2 ATPase activity” value at recombinant human TOP2B is 1.0. For the same compound, the minimal effective concentration in series [1] is 10 µM. In addition, the “Suppl.Fig.3 DAU-induced cytotoxicity (LDH release) in NVCM, mean of independent replicates” value in series [1] (compound 0.1 µM + DAU 1.2 µM) turned out to be 53.5677; in series [1] (compound 1 µM + DAU 1.2 µM), 49.2444; in series [1] (compound 10 µM + DAU 1.2 µM), 40.137; in series [1] (compound 30 µM + DAU 1.2 µM) it was 35.8495. Moreover, in series [2] (compound alone, n=4), the “LTC = lowest toxic concentration” value is greater than 30 µM. Further, the “LDH release (inherent toxicity), mean of independent replicates” value in series [2] (compound alone 0.1 µM) is 13.7703; in series [2] (compound alone 1 µM), 14.0098; in series [2] (compound alone 10 µM), 14.5134; in series [2] (compound alone 30 µM), 14.3714.
As to `COc1cc([C@@H]2c3cc4c(cc3[C@@H](O[C@@H]3O[C@@H]5CO[C@@H](C)O[C@H]5[C@H](O)[C@H]3O)[C@H]3COC(=O)[C@H]23)OCO4)cc(OC)c1O` [etoposide, reference compound], in series [3], the TOP2A spot intensity is 63.37 and 136 and 84.27 and 127.1 and 89.2. For the same compound, the TOP2B spot intensity in series [4] was 173.9 and 77.69 and 59.37 and 61.46.

Values taken from article PMC12116762, “Topobexin targets the Topoisomerase II ATPase domain for beta isoform-selective inhibition and anthracycline cardioprotection” (Nature Communications, 2025).
